Several values for one entry are separate records, joined by “and”; a condition that tells them apart may be missing. Equal entries are not always repeated. Entries after “also recorded” stand apart in the source; their conditions may differ. Where two headings read alike, the source gives them in different places.
What was measured:
[1] = system: HCC (hepato cellular carcinoma); experiment: Transition of AFP (tumor marker) values in GM-administered HCC patients; type: in vivo; conditions: for Average AFP value: GM-administered HCC group with abnormal AFP values; for Effect on AFP values (in words): GM-administered HCC patients, 100-300 mg intravenous drip infusion
Description: (§1) AFP (Alpha-fetoprotein) and PIVKA-II (isomer of prothrombin) were used as tumor markers of HCC. […] In general, it is often difficult to determine the shrinkage of cancer lesions by CT scanning or echo imaging immediately after conducting TAE, therefore these markers are used to determine the effects. In Japan, the conventional Alpha-feto Riabeads method has been replaced by the Chemilumi ACS-AFP method since May 2004. The former is a radiation immunoassay whose standard value is ≦20. Meanwhile, the latter is a chemiluminescence immunoassay whose standard value is ≦10.
HCC patients and AFP-positive (precancerous lesions or regenerating hepatocytes) patients without HCC observed on the images ([…] as “GM”) dissolved in 150-300 ml of physiological saline or of 5% glucose by intravenous drip infusion. GM is originally a drug applicable to chronic pancreatitis, acute pancreatitis, and DIC (disseminated intravascular coagulation), however, informed consent was obtained before the administration. And in allergy cases, the starting dose was 75-100 mg and increased. The nonadministered group is GM-nonadministered HCC cases.
In general, AFP and PIVKA-II values are considered to represent cancer viability in hepato cellular carcinoma cases. GM is considered to suppress the viability, since GM suppresses AFP and PIVKA-II values. […]
As described above, GM administration after TAE was conducted 10 days after TAE was completed. And GM was considered effective if suppression was observed 4 months after TAE was completed.

[2] = system: HCC (hepato cellular carcinoma); experiment: Transition of PIVKA-II (tumor marker) values in GM-administered HCC patients; type: in vivo
Description: as §1
HCC patients and AFP-positive (precancerous lesions or regenerating hepatocytes) patients without HCC observed on the images (on CT or echo exam) were given 100-300 mg of gabexate mesilate (hereinafter referred to as “GM”) dissolved in 150-300 ml of physiological saline or of 5% glucose by intravenous drip infusion. GM is originally a drug applicable to chronic pancreatitis, acute pancreatitis, and DIC (disseminated intravascular coagulation), however, informed consent was obtained before the administration. And in allergy cases, the starting dose was 75-100 mg and increased. The nonadministered group is GM-nonadministered HCC cases.
In general, AFP and PIVKA-II values are considered to represent cancer viability in hepato cellular carcinoma cases. […]

[3] = Side effects of GM among 22 cases; type: in vivo, patients; conditions: among 22 cases including pancreatic disease cases
Description: Side effects of GM used in the present invention already include shock, anaphylaxis, bleeding tendency, granulocytopenia, fall in blood pressure, elevation of GOT and GPT, facial flushing and the like; among 22 cases including pancreatic disease cases, shock: 0 case, anaphylaxis: 3 cases, bleeding tendency: 0 case, slight granulocytopenia: 22 cases, significant fall in blood pressure: 0 case, elevation of GOT and GPT: 2 cases, and withdrawal: 0.

SMILES: CCOC(=O)c1ccc(OC(=O)CCCCCN=C(N)N)cc1.CS(=O)(=O)O [GM, gabexate mesilate]
- Maximum AFP value ([1]; 0 M, GM-administered HCC group): 18.9 ng/mL
- Minimum AFP value ([1]; 0 M, GM-administered HCC group): 6.5
- Average AFP value ([1]; 0 M, 7 cases): 11.1 ± 4.8 and 11.1
- AFP value ([1]; 0 M, individual GM-administered HCC patient, Chemilumi ACS-AFP method): 18.9 and 15.5 and 8.1 and 7.2 and 8.5 and 6.5 and 13.0
- Increase and decrease in AFP value, Δ 1 M ([1]; 1 M versus 0 M, individual GM-administered HCC patient): −2.7 and −1.3 and 3.6 and 2.4 and 3.3 and 0.3 and −3.4
- Average difference of AFP from the value at 0M ([1]; 1 M, GM-administered HCC group): 0.3 and 0.3143
- Maximum AFP value ([1]; 1 M, GM-administered HCC group): 19.2 ng/mL
- Minimum AFP value ([1]; 1 M, GM-administered HCC group): 5.4
- Significant difference of AFP versus 0M ([1]; 1 M, GM-administered HCC group): none
- Average AFP value ([1]; 1 M, 7 cases): 11.4 ± 5.1 and 11.4
- AFP value ([1]; 1 M, individual GM-administered HCC patient, Chemilumi ACS-AFP method): 19.2 and 12.1 and 5.4 and 5.9 and 8.9 and 16.3
- Increase and decrease in AFP value, Δ 2 M ([1]; 2 M versus 0 M, individual GM-administered HCC patient): −1.4 and 3.1 and −0.3 and 2.2 and 1.5 and −6.8
- Maximum AFP value ([1]; 2 M, GM-administered HCC group): 20.4 ng/mL
- Minimum AFP value ([1]; 2 M, GM-administered HCC group): 5.8
- Significant difference of AFP versus 0M ([1]; 2 M, GM-administered HCC group): none
- Average AFP value ([1]; 2 M, 6 cases): 11.3 ± 5.7 and 11.3
- AFP value ([1]; 2 M, individual GM-administered HCC patient, Chemilumi ACS-AFP method): 20.4 and 8.7 and 5.8 and 11.6 and 6.2 and 15.2
- Increase and decrease in AFP value, Δ 3 M ([1]; 3 M versus 0 M, individual GM-administered HCC patient): −3 and −3.2 and 5.1 and 0.2 and 3.7 and 4.1 and −9.4
- Maximum AFP value ([1]; 3 M, GM-administered HCC group): 23 ng/mL
- Minimum AFP value ([1]; 3 M, GM-administered HCC group): 4.0
- Significant difference of AFP versus 0M ([1]; 3 M, GM-administered HCC group): none
- Average AFP value ([1]; 3 M, 7 cases): 10.7 ± 7.2 and 10.7
- AFP value ([1]; 3 M, individual GM-administered HCC patient, Chemilumi ACS-AFP method): 23.0 and 6.1 and 5.1 and 4.0 and 13.6 and 6.7 and 16.7
- AFP value ([1]; 3rd case of TABLE 2, 20 mg of GM, when HCC was roughly diagnosed by contrast CT): 8-9
- Current AFP value ([1]; 4th case of TABLE 2, 200 mg of GM after TAE): around 7
- Highest AFP value reached ([1]; 4th case of TABLE 2, GM reduced to 75-100 mg because of allergy, before TAE): up to 70
- Statistical difference of AFP between each month and 0M (in words) ([1]; GM-administered HCC patients of TABLE 2): no significant difference
- Effect on AFP values (in words) [1]: the elevation of AFP values was suppressed; also recorded: elevation of PIVKA-II and AFP values was not observed
- Effect on AFP values (in words) ([1]; listed as gabexate mesilate): dropped, or their elevation was suppressed; also recorded: suppressed the elevation of AFP values for a prolonged period
- Number of times of effective GM administrations after TAE ([1]; cases of TABLE 2, effective if suppression observed 4 months after TAE): 6
- Current AFP value ([1]; first case of TABLE 2, person, GM 200-300 mg with repeated TAE): 9.0
- Number of times of effective GM administrations, single GM administration ([1]; single GM-administered cases including 4 cases with abnormal AFP values of unknown etiology, effective if markers suppressed in one month): 7
- Effect on PIVKA-II values (in words) [2]: elevation of PIVKA-II and AFP values was not observed
- Effect on PIVKA-II values (in words) ([2]; listed as gabexate mesilate): dropped, or their elevation was suppressed
- Side effect: anaphylaxis [3]: 3 cases
- Side effect: bleeding tendency [3]: 0 case
- Side effect: elevation of GOT and GPT [3]: 2 cases
- Side effect: shock [3]: 0 case
- Side effect: significant fall in blood pressure [3]: 0 case
- Side effect: slight granulocytopenia [3]: 22 cases
- Withdrawal [3]: 0
